Publication PMC9884089 (Journal of Medicinal Chemistry, 2023)

Legend:
[1] = Stability in human plasma; format: in vitro ADME; conditions: 37 °C
Description: HEPES buffer (0.9 mL, 25 mM, 140 mM NaCl, pH 7.4), and 0.1 mL of each compound in DMSO (2.0 mM). The solution was mixed in a test tube that was incubated at 37 °C. […] The supernatant was removed and analyzed by UV/LC–MS.

[2] = Stability in PBS pH 7.4; format: physicochemical; conditions: 500 μM
Description: For the stability measurements in polar solvents, each compound was dissolved at room temperature in MeOH or PBS (0.025 M, pH 7.4) up to a final concentration of 500 μM.

[3] = target: T1, Human PARP6 (Homo sapiens, UniProt Q2NL67); assay: PARP6 inhibition assay (400 nM PARP6, 500 nM NAD+, 18 h); format: biochemical; conditions: ≫ no inhibition at the concentration; > less than 50% inhibition
T1 construct: Human PARP6 (Uniprot #Q2NL67-1) was cloned into a modified pFASTBac1 vector; 6× His-MBP with TEV protease site (N, cleaved yes); made in house; host or cells: Sf21 insect cells (baculovirus)
T1 sequence (Q2NL67 whole entry): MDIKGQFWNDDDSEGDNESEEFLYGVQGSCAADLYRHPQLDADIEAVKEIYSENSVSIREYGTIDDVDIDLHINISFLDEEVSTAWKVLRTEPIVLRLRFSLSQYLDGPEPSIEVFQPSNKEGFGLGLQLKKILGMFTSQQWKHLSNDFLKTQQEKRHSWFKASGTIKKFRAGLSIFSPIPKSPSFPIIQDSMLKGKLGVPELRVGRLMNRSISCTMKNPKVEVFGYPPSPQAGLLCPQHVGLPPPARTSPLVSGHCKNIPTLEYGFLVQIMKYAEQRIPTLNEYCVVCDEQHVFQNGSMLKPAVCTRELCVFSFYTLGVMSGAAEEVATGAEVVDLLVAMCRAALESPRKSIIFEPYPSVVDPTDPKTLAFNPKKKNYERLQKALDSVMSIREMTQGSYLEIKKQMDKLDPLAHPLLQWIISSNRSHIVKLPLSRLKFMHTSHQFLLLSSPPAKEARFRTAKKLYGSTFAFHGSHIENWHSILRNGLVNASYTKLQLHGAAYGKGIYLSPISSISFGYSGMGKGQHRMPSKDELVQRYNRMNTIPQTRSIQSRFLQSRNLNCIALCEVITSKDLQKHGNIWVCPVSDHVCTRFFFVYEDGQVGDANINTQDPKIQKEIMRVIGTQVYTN
Description: (§1) Inhibition experiments were performed using a homogenous assay measuring NAD+ consumption.[80]−[82] Reactions were carried out in quadruplicate, and IC50 curves were fitted using sigmoidal dose response curve (four variables) in GraphPad Prism version 8.02. […] Assay conditions for PARP2, TNKS2, PARP10, and PARP15 (Tables 1–3) were recently reported.[44] The conditions for the proximity-enhanced mono-ART assays (Table 4) were also reported recently.[47] PARP6 (400 nM) inhibition was measured using the standard buffer (50 mM sodium phosphate pH 7.0) for the enhanced activity assay using 500 nM NAD^+ and 18 h incubation in r.t..

[4] = Metabolic stability in HLM; conditions: 37 °C, 1 h, NADPH regenerating system
Description: Each compound in DMSO solution was incubated at 37 °C for 1 h in phosphate buffer (25 mM pH 7.4), human liver microsomal protein (0.2 mg/mL), and in the presence of an NADPH regenerating system (NADPH 0.2 mM, […] 1 mM, D-glucose-6-phosphate 4 mM, 4 unit/mL glucose-6-phosphate dehydrogenase) in 48 mM MgCl2 at a final volume of 500 μL. The reaction was stopped by cooling in ice and quenched by adding 1.0 mL of acetonitrile. The reaction mixtures were then centrifuged (4000 rpm for 10 min), and the supernatant was taken, dried under nitrogen flow, and suspended in 100 μL of methanol. The parent drug and metabolites were subsequently determined by UV/LC–MS. The percentage of not metabolized compound was calculated by comparison with reference solutions. For each compound, the determination was performed in three independent experiments.

[5] = test system: HeLa Flp-In T-REx-PARP10 cells; assay: PARP10 rescue assay (colony formation, Dox-induced PARP10 overexpression); format: cell-based, human; conditions: for EC50: Homo sapiens, HeLa, read-out: PARP10 rescue EC50; for Rescue of cells from PARP10-induced cell death: at 1 μM, colony formation
Description: HeLa Flp-In T-REx-PARP10 and -PARP10-G888W cells were grown in DMEM medium supplemented with 10% heat-inactivated fetal calf serum at 37 °C in 5% CO2.[92] For colony formation assays, 500 HeLa cells were seeded in 6-well culture plates. Once the cells adhered, protein expression was induced by adding 500 ng/mL Dox. […] The number of colonies was assessed using ImageJ. EC50 curves were fitted using three variables in GraphPad Prism version 8.02.

[6] = target: T2, TNKS2 (Homo sapiens, UniProt Q9H2K2); assay: biochemical; conditions: read-out: TNKS2 IC50; > = less than 50% inhibition at highest concentration
T2 sequence (Q9H2K2 1-1166): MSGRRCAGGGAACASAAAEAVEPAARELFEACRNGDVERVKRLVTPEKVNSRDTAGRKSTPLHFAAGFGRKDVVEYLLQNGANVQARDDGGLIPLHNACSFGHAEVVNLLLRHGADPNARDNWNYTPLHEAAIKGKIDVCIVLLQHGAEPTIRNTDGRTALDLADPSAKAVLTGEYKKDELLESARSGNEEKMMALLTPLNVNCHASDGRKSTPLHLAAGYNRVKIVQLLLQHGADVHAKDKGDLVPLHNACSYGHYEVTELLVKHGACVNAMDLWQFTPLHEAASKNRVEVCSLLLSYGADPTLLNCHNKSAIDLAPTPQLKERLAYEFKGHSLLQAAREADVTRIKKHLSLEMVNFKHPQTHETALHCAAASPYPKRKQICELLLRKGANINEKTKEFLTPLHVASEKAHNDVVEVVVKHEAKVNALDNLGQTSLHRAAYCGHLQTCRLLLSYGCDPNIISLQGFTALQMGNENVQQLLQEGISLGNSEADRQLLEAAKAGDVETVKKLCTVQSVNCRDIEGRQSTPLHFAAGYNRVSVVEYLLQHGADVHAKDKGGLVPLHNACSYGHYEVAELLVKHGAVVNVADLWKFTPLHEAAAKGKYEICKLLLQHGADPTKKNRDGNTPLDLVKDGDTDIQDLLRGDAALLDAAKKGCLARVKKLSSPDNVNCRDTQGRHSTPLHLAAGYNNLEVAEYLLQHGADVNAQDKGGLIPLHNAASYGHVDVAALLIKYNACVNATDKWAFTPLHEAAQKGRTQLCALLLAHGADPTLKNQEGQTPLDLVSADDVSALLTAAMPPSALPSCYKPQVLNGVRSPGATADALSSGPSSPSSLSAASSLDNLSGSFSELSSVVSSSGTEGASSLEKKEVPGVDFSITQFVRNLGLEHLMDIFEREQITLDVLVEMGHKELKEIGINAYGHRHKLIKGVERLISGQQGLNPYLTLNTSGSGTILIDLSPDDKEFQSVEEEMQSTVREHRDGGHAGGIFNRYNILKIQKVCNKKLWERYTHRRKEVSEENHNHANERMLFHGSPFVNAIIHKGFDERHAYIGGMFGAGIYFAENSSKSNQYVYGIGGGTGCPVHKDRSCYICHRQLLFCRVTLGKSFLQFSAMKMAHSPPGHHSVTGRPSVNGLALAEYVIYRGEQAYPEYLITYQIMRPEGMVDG
Description: The proteins used in Tables 1–3 were produced as described earlier. Dockerin constructs to allow enhanced activity assays for mono-ARTs (Table 4) were produced in Escherichia coli with an N-terminal maltose binding protein (MBP) and a C-terminal dockerin domain from Hungateiclostridium thermocellum Cel48s as described recently.[47]
as §1

[7] = target: T3, PARP2 (Homo sapiens, UniProt Q9UGN5); assay: biochemical; format: biochemical; conditions: > = less than 50% inhibition at highest concentration; ≫ = no inhibition; read-out: PARP2 IC50
T3 construct: made in house
T3 sequence (Q9UGN5 whole entry): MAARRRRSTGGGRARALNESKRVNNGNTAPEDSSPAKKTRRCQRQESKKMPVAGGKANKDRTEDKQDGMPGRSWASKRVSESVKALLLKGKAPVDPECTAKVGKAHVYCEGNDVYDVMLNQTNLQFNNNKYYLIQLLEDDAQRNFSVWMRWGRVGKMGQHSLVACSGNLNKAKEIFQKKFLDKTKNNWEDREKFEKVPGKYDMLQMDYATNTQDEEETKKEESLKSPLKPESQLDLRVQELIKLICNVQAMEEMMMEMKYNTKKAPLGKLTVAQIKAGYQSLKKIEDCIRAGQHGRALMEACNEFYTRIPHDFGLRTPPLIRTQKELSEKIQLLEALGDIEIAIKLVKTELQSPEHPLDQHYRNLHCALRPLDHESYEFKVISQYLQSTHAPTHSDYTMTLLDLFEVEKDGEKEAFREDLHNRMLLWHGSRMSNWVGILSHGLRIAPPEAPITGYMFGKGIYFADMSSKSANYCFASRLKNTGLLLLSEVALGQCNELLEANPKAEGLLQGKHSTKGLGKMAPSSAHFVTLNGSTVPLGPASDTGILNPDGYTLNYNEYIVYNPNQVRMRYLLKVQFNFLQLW

Row | SMILES | stab in human plasma [1] | stab in PBS pH 7.4 [2] | IC50 [3] | metabolic stablity % (unchanged compound) [4] | EC50 [5] | Rescue of cells from PARP10-induced cell death [5] | IC50 [6] | IC50 [7]
1 | Cc1ccc2c(c1)sc1nnc(N)n12 [Compound 21, 7-Methyl[1,2,4]triazolo[3,4-b][1,3]benzothiazol-3-amine] | >24 h | >24 h | > 10 µM | 99.14% | 0.5 µM | efficiently rescued cells from PARP10-induced cell death | 5.7 µM | –
2 | COc1ccc(OC)c2c1sc1nnc(N)n12 [Compound 27, 5,8-Dimethoxy[1,2,4]triazolo[3,4-b][1,3]benzothiazol-3-amine] | >24 h | >24 h | 7.7 µM | 99.11% | 0.15 µM | efficiently rescued cells from PARP10-induced cell death | 10 µM | 10 µM
